According to US12668599B2, “Heterobifunctional compounds and methods of treating disease” (Halda Therapeutics OpCo, Inc., priority 2023, dated 2026):

How the values were obtained:
[1] = system: T-Rex 293 cell line SC3 cells having increased expression of androgen receptor protein due to exposure to doxycycline; assay: Cellular growth inhibition, T-Rex 293 SC3 cells with doxycycline-induced androgen receptor (CellTiter-Glo 2.0, 72 hours); assay type: cell-based; conditions: for GI50: T-Rex 293 SC3 cells with 10 ng/ml doxycycline (increased androgen receptor expression), 72 hours, CellTiter-Glo 2.0
Procedure: (§1) Ability of the test compounds to inhibit proliferation of the foregoing cell types was evaluated according to the procedures set forth below.
(§2) The doxycycline-inducible androgen receptor protein expressing cell line was established using the following protocol: T-Rex 293 cells were purchased from Invitrogen (Cat #R71007) and transfected using Lipofectamine 2000 with the wild-type androgen receptor protein sequence cloned into the pcDNA4/TO vector. Transfected cells were selected using 400 μg/mL Zeocin (Invitrogen Cat #R25001). Following selection, single clones were raised and maintained in Dulbecco's Modified Eagle Medium (DMEM) supplemented with 10% w/w Tetracycline-free fetal bovine serum (FBS) and 250 μg/mL Zeocin. Clones were analyzed for expression of androgen receptor protein in the presence and absence of 10 ng/ml doxycycline (Sigma Cat #D9891), and a single doxycycline-inducible clone (hereinafter “SC3”) was selected for use in downstream assays.
(§3) The SC3 cells were seeded on poly-D-lysine coated, black clear-bottom 384-well plates at 2500/well, in 25 μL Phenol Red Free Dulbecco's Modified Eagle Medium (DMEM) supplemented with 10% w/w charcoal-dextran treated fetal bovine serum (FBS) and 1% w/w pen-strep, with or without 10 ng/ml doxycycline. Pen-Strep is a commercially available mixture of penicillin G and streptomycin, which is used in mammalian cell culture media to prevent bacterial contamination. Phenol Red Free Dulbecco's Modified Eagle Medium (DMEM) supplemented with 10% w/w charcoal-dextran treated fetal bovine serum (FBS) and 1% w/w pen-strep, with or without 10 ng/mL doxycycline is herein referred to as Treatment Medium. Following seeding of cells in the plates, the plates were spun at 300×g for 30 seconds, then equilibrated to room temperature for 30 minutes, and then deposited in a humidified tissue culture incubator maintained at 37° C. with 5% CO2.
(§4) At 24 hours after seeding of the cells, dilutions of test compound were prepared in DMSO and dissolved in Treatment Medium, to achieve a final DMSO concentration of 0.5% w/w, thereby providing the Test Compound Solution. A 25 μL aliquot of the Test Compound Solution was added to cells in the well plates. An equal volume of a solution containing DMSO and Treatment Medium was used as a negative control. Following treatment of cells with Test Compound Solution or said equal volume of a solution containing DMSO and Treatment Medium, the plates were spun at 300×g for 30 seconds, and then left in an incubator for 72 hours.
(§5) At the end of the treatment duration, cell viability was quantified with CellTiter-Glo 2.0 reagent (Promega Cat #G9243). For this purpose, plates were equilibrated to room temperature for 30 minutes, and then 25 μL of CellTiter-Glo 2.0 reagent was added to cells in the plate wells. Plates were then agitated on a shaker for two minutes at 500 rpm and subsequently incubated at room temperature for 10 minutes. Following incubation, the plates were spun at 3000×g for 30 seconds, then sealed with an optical adhesive cover, and luminescence readings were measured with an En Vision Plate Reader.
(§6) Data was normalized using zero luminescence for baseline. A four-parameter non-linear regression curve fit was applied to dose-response data in GraphPad Prism data analysis software to determine the half-maximal growth inhibitory concentration (GI50) for each test compound.

[2] = system: VCaP cells; assay: Cellular growth inhibition assay for VCaP cells (CellTiter-Glo 2.0, 72 hours); assay type: cell-based, human; conditions: for GI50: CellTiter-Glo 2.0
Procedure: Exemplary compounds were tested for ability to inhibit the proliferation of VCaP cells. VCap cells are a commercially available human prostate cancer cell line.
VCaP cells were purchased from American Type Cell Culture (ATCC Cat #CRL2876) and then seeded on poly-D-lysine coated, black clear-bottom 384-well plates at 5000/well in 25 μL Dulbecco's Modified Eagle Medium (DMEM) supplemented with 10% w/w Fetal bovine serum (FBS) and 1% w/w Pen-Strep. Pen-Strep is a commercially available mixture of penicillin G and streptomycin, which is used in mammalian cell culture media to prevent bacterial contamination. Dulbecco's Modified Eagle Medium (DMEM) supplemented with 10% w/w fetal bovine serum (FBS) and 1% w/w Pen-Strep is herein referred to as Treatment Medium. Following seeding of cells in the plates, the plates were spun at 300×g for 30 seconds, then equilibrated to room temperature for 30 minutes, and then deposited in a humidified tissue culture incubator maintained at 37° C. with 5% CO2.
as §4, §5, §6

[3] = system: T-Rex 293 cell line SC3 cells lacking increased expression of androgen receptor protein; assay: Cellular growth inhibition, T-Rex 293 SC3 cells without doxycycline (CellTiter-Glo 2.0, 72 hours); assay type: cell-based; conditions: T-Rex 293 SC3 cells not exposed to doxycycline (no increased androgen receptor expression)
Procedure: as §1, §2, §3, §4, §5, §6

`COc1cc(O[C@H]2CC[C@H](NC(=O)c3ccc(N4CCC5(CCC(c6ccc(C7=N[C@@H](C)c8nnc(C)n8-c8sc(C)c(C)c87)cc6)CC5)C4)nn3)CC2)ccc1C#N` (stereo partly drawn) [Compound I-19, N-[(1r,4r)-4-(4-cyano-3-methoxy-phenoxy)cyclohexyl]-6-[8-[4-[(9S)-4,5,9,13-tetramethyl-3-thia-1,8,11,12-tetrazatricyclo[8.3.0.0^2,6]trideca-2 (6),4,7,10,12-pentaen-7-yl]phenyl]-2-azaspiro[4.5]decan-2-yl]pyridazine-3-carboxamide] showed a GI50 [1] of under 500 nM, a GI50 ([2]; Homo sapiens, VCaP, 72 h) of under 500 nM and a GI50 ([3]; 72 h) of under 500 nM.

In the case of `COc1cc(O[C@H]2CC[C@H](NC(=O)c3ccc(N4CCC5(CCC(c6ccc(C7=N[C@@H](C)c8nnc(C)n8-c8sc(C)c(C)c87)cc6)CC5)C4)nn3)CC2)ccc1C#N` (some centres unmarked) [Compound I-20], the GI50 [1] was under 500 nM, the GI50 ([2]; 72 hours) was under 500 nM and the GI50 [3] was under 500 nM.

In the case of `COc1cc(O[C@H]2CC[C@H](NC(=O)c3ccc(N4CCC5(CCC(c6ccc(C7=N[C@@H](C)c8nnc(C)n8-c8sc(C)c(C)c87)cc6)C5)CC4)nn3)CC2)ccc1C#N` (some centres unmarked) [Compound I-21], the GI50 [1] was under 500 nM, the GI50 ([2]; 72 hours) was 500 to 1500 nM and the GI50 [3] was under 500 nM.

In the case of `COc1cc(O[C@H]2CC[C@H](NC(=O)c3ccc(N4CCC5(CCC(c6ccc(C7=N[C@@H](C)c8nnc(C)n8-c8sc(C)c(C)c87)cc6)C5)CC4)nn3)CC2)ccc1C#N` (some centres unmarked) [Compound I-22], the GI50 [1] was under 500 nM, the GI50 ([2]; Homo sapiens, VCaP, 72 h) was 500 to 1500 nM and the GI50 ([3]; 72 h) was under 500 nM.

`COc1cc(O[C@H]2CC[C@H](NC(=O)c3ccc(N4CCC5(CCN(c6ccc(C7=N[C@@H](C)c8nnc(C)n8-c8sc(C)c(C)c87)cc6)C5)CC4)nn3)CC2)ccc1C#N` [Compound I-23] gave a GI50 [1] of over 3000 nM, a GI50 ([2]; Homo sapiens, VCaP, 72 h) of over 3000 nM and a GI50 ([3]; 72 h) of under 500 nM.

With `COc1cc(O[C@H]2CC[C@H](NC(=O)c3ccc(N4CCCC5(CCC(c6ccc(C7=N[C@@H](C)c8nnc(C)n8-c8sc(C)c(C)c87)cc6)CC5)C4)nn3)CC2)ccc1C#N` (some centres unmarked) [Compound I-24] the GI50 [1] was under 500 nM, the GI50 ([2]; Homo sapiens, VCaP, 72 h) was under 500 nM and the GI50 ([3]; 72 h) was 1500 to 3000 nM.

`COc1cc(O[C@H]2CC[C@H](NC(=O)c3ccc(N4CCC5(CC4)CC(Cc4ccc(C6=N[C@@H](Cc7ncco7)c7nnc(C)n7-c7sc(C)c(C)c76)cc4)C5)nn3)CC2)ccc1C#N` [Compound I-25, N-[4-(4-cyano-3-methoxy-phenoxy)cyclohexyl]-6-[2-[[4-[(9S)-4,5,13-trimethyl-9-(oxazol-2-ylmethyl)-3-thia-1,8,11,12-tetrazatricyclo[8.3.0.0^2,6]trideca-2 (6),4,7,10,12-pentaen-7-yl]phenyl]methyl]-7-azaspiro[3.5]nonan-7-yl]pyridazine-3-carboxamide] was tested, and the “Ratio of GI50's” value ([1]; GI50 of the top compound in the pair divided by GI50 of the lower compound, T-Rex 293 SC3 cells with doxycycline-induced androgen receptor) was 1, the GI50 [1] was under 500 nM and the “Ratio of GI50's” value ([2]; GI50 of the top compound in the pair divided by GI50 of the lower compound) was 1. The GI50 ([2]; Homo sapiens, VCaP, 72 h) was under 500 nM and the GI50 ([3]; 72 h) was under 500 nM.

Molecule `COC[C@@H]1N=C(c2ccc(C3CCC4(CC3)CCN(c3ccc(C(=O)NC5CCC(Oc6ccc(C#N)c(OC)c6)CC5)nn3)C4)cc2)c2c(sc(C)c2C)-n2c(C)nnc21` (stereo partly drawn) [Compound I-27, N-[4-(4-cyano-3-methoxy-phenoxy)cyclohexyl]-6-[8-[4-[(9R)-9-(methoxymethyl)-4,5,13-trimethyl-3-thia-1,8,11,12-tetrazatricyclo[8.3.0.0^2,6]trideca-2 (6),4,7,10,12-pentaen-7-yl]phenyl]-2-azaspiro[4.5]decan-2-yl]pyridazine-3-carboxamide] has a GI50 [1] of under 500 nM, a GI50 ([2]; Homo sapiens, VCaP, 72 h) of under 500 nM and a GI50 ([3]; 72 h) of under 500 nM.

For `COCC[C@@H]1N=C(c2ccc(C3CCC4(CC3)CCN(c3ccc(C(=O)NC5CCC(Oc6ccc(C#N)c(OC)c6)CC5)nn3)C4)cc2)c2c(sc(C)c2C)-n2c(C)nnc21` (stereo partly drawn) [Compound I-29, N-[4-(4-cyano-3-methoxy-phenoxy)cyclohexyl]-6-[8-[4-[(9S)-9-(2-methoxyethyl)-4,5,13-trimethyl-3-thia-1,8,11,12-tetrazatricyclo[8.3.0.0^2,6]trideca-2 (6),4,7,10,12-pentaen-7-yl]phenyl]-2-azaspiro[4.5]decan-2-yl]pyridazine-3-carboxamide], the GI50 [1] was under 500 nM, the GI50 ([2]; Homo sapiens, VCaP, 72 h) was under 500 nM and the GI50 ([3]; 72 h) was under 500 nM.

`COCC[C@@H]1N=C(c2ccc(C#CC3CC4(C3)CN(c3ccc(C(=O)NC5CCC(Oc6ccc(C#N)c(OC)c6)CC5)nn3)C4)cc2)c2c(sc(C)c2C)-n2c(C)nnc21` (stereo partly drawn) [Compound I-30, N-[4-(4-cyano-3-methoxy-phenoxy)cyclohexyl]-6-[6-[2-[4-[(9S)-9-(2-methoxyethyl)-4,5,13-trimethyl-3-thia-1,8,11,12-tetrazatricyclo[8.3.0.0^2,6]trideca-2 (6),4,7,10,12-pentaen-7-yl]phenyl]ethynyl]-2-azaspiro[3.3]heptan-2-yl]pyridazine-3-carboxamide] was tested, and the GI50 [1] was under 500 nM, the GI50 ([2]; 72 hours) was under 500 nM and the GI50 [3] was under 500 nM.

Work on `CC[C@@H]1N=C(c2ccc(C#CC3CC4(C3)CN(c3ccc(C(=O)N[C@H]5CC[C@H](Oc6ccc(C#N)c(OC)c6)CC5)nn3)C4)cc2)c2c(sc(C)c2C)-n2c(C)nnc21` [Compound I-31, N-[4-(4-cyano-3-methoxy-phenoxy)cyclohexyl]-6-[6-[2-[4-[(9S)-9-ethyl-4,5,13-trimethyl-3-thia-1,8,11,12-tetrazatricyclo[8.3.0.0^2,6]trideca-2 (6),4,7,10,12-pentaen-7-yl]phenyl]ethynyl]-2-azaspiro[3.3]heptan-2-yl]pyridazine-3-carboxamide] yielded a GI50 [1] of under 500 nM, a GI50 ([2]; Homo sapiens, VCaP, 72 h) of under 500 nM and a GI50 ([3]; 72 h) of under 500 nM.

In the case of `COC[C@@H]1N=C(c2ccc(C#CC3CC4(C3)CN(c3ccc(C(=O)N[C@H]5CC[C@H](Oc6ccc(C#N)c(OC)c6)CC5)nn3)C4)cc2)c2c(sc(C)c2C)-n2c(C)nnc21` [Compound I-32, N-[4-(4-cyano-3-methoxy-phenoxy)cyclohexyl]-6-[6-[2-[4-[(9R)-9-(methoxymethyl)-4,5,13-trimethyl-3-thia-1,8,11,12-tetrazatricyclo[8.3.0.0^2,6]trideca-2 (6),4,7,10,12-pentaen-7-yl]phenyl]ethynyl]-2-azaspiro[3.3]heptan-2-yl]pyridazine-3-carboxamide], the GI50 [1] was under 500 nM, the GI50 ([2]; Homo sapiens, VCaP, 72 h) was under 500 nM and the GI50 ([3]; 72 h) was under 500 nM.

For `COCC[C@@H]1N=C(c2ccc(C#CC3CC4(C3)CN(c3ccc(C(=O)N[C@H]5CC[C@H](Oc6ccc(C#N)c(OC(F)(F)F)c6)CC5)nn3)C4)cc2)c2c(sc(C)c2C)-n2c(C)nnc21` [Compound I-33], the GI50 [1] was under 500 nM, the GI50 ([2]; 72 hours) was under 500 nM and the GI50 [3] was under 500 nM.

For `COc1cc(O[C@H]2CC[C@H](NC(=O)c3cnc(N4CCC5(CCC(c6ccc(C7=N[C@@H](C)c8nnc(C)n8-c8sc(C)c(C)c87)cc6)CC5)C4)nc3)CC2)ccc1C#N` (some centres unmarked) [Compound I-35], the GI50 [1] was under 500 nM, the GI50 ([2]; Homo sapiens, VCaP, 72 h) was under 500 nM and the GI50 ([3]; 72 h) was under 500 nM.

`COc1cc(O[C@H]2CC[C@H](NC(=O)c3ccc(N4CCC5(CCC(c6ccc(C7=N[C@@H](C)c8nnc(C)n8-c8sc(C)c(C)c87)cc6)CC5)C4)nc3)CC2)ccc1C#N` (some centres unmarked) [Compound I-36] gave a GI50 [1] of under 500 nM, a GI50 ([2]; Homo sapiens, VCaP, 72 h) of under 500 nM and a GI50 ([3]; 72 h) of under 500 nM.
